Converted amounts (≈) assume the structure as drawn. The source made the active and inactive calls. No cut-off for these calls is given here.
Assays:
[1] = system: Rattus norvegicus; assay: Conversion of prodrug to parent in rat at 3 mg/kg, iv [100*AUC (JNJ-7706621) / AUC (prodrug)]; format: ADME, organism-based; parameters: dose 3 mg/kg, route intravenous; conditions: in vivo
[2] = target: Cyclin-dependent kinase 2 (Homo sapiens, UniProt P24941); assay: Inhibition of CDK2
[3] = system: HeLa; assay: Antiproliferative activity against human HeLa cells; format: functional, cell-based
[4] = system: HCT-116; assay: Antiproliferative activity against human HCT116 cells; format: functional, cell-based
[5] = system: A-375; assay: Antiproliferative activity against human A375 cells; format: functional, cell-based
[6] = Solubility at pH 2.0; format: physicochemical; conditions: buffer
[7] = Solubility at pH 7.4; format: physicochemical; conditions: buffer
[8] = AUC in rat at 3 mg/kg, iv; format: ADME, organism-based; parameters: dose 3 mg/kg, route intravenous; conditions: plasma
[9] = Tmax in rat; format: ADME, organism-based; conditions: in vivo
[10] = Half life in rat; format: ADME, organism-based; conditions: in vivo
[11] = target: Cyclin-dependent kinase 1 (Homo sapiens, UniProt P06493); assay: Inhibition of CDK1
[12] = system: Rattus norvegicus; assay: AUC in rat after administration as its prodrug N-(4-(5-amino-1-(2,6-difluorobenzoyl)-1H-1,2,4-triazol-3-ylamino)phenylsulfonyl)-3-(4-methylpiperazin-1-yl)propanamide at 3 mg/kg, iv; format: ADME, organism-based, Plasma; parameters: dose 3 mg/kg, route intravenous; conditions: in vivo
[13] = system: Rattus norvegicus; assay: AUC in rat after administration as its prodrug 2-amino-N-(4-(5-amino-1-(2,6-difluorobenzoyl)-1H-1,2,4-triazol-3-ylamino)phenylsulfonyl)acetamide at 3 mg/kg, iv; format: ADME, organism-based, Plasma; parameters: dose 3 mg/kg, route intravenous; conditions: in vivo
[14] = system: Rattus norvegicus; assay: AUC in rat after administration as its prodrug N-(4-(5-amino-1-(2,6-difluorobenzoyl)-1H-1,2,4-triazol-3-ylamino)phenylsulfonyl)-2-(2-methoxyethoxy)acetamide at 3 mg/kg, iv; format: ADME, organism-based, Plasma; parameters: dose 3 mg/kg, route intravenous; conditions: in vivo
[15] = system: Rattus norvegicus; assay: AUC in rat after administration as its prodrug ethyl 4-(4-(5-amino-1-(2,6-difluorobenzoyl)-1H-1,2,4-triazol-3-ylamino)phenylsulfonamido)-4-oxobutanoate at 3 mg/kg, iv; format: ADME, organism-based, Plasma; parameters: dose 3 mg/kg, route intravenous; conditions: in vivo
[16] = system: Rattus norvegicus; assay: AUC in rat after administration as its prodrug (R)-2-amino-N-(4-(5-amino-1-(2,6-difluorobenzoyl)-1H-1,2,4-triazol-3-ylamino)phenylsulfonyl)-3-hydroxypropanamide at 3 mg/kg, iv; format: ADME, organism-based, Plasma; parameters: dose 3 mg/kg, route intravenous; conditions: in vivo
[17] = Oral bioavailability in nude mice; format: ADME, organism-based; conditions: mouse, in vivo
[18] = Oral bioavailability in rat; format: ADME, organism-based; conditions: in vivo
[19] = system: A-375; assay: Antitumor activity in human melanoma A375 cell line using tumor xenograft model at 100 mg/kg, ip; format: functional; conditions: A-375, ip, route intraperitoneal, read-out: TGI
[20] = system: Rattus norvegicus; assay: AUC in rat after administration as its prodrug N-(4-(5-amino-1-(2,6-difluorobenzoyl)-1H-1,2,4-triazol-3-ylamino)phenylsulfonyl)-3-morpholinopropanamide at 3 mg/kg, iv; format: ADME, organism-based, Plasma; parameters: dose 3 mg/kg, route intravenous; conditions: in vivo
[21] = system: Rattus norvegicus; assay: AUC in rat after administration as its prodrug 4-(4-(5-amino-1-(2,6-difluorobenzoyl)-1H-1,2,4-triazol-3-ylamino)phenylsulfonamido)-4-oxobutanoic acid at 3 mg/kg, iv; format: ADME, organism-based, Plasma; parameters: dose 3 mg/kg, route intravenous; conditions: in vivo
[22] = system: A-375; assay: Antitumor activity in human melanoma A375 cell line using tumor xenograft model after 28 days at 100 mg/kg, ip; format: functional, organism-based; parameters: dose 100 mg/kg

Cyclin-dependent kinase 1, sequence (P06493 whole entry): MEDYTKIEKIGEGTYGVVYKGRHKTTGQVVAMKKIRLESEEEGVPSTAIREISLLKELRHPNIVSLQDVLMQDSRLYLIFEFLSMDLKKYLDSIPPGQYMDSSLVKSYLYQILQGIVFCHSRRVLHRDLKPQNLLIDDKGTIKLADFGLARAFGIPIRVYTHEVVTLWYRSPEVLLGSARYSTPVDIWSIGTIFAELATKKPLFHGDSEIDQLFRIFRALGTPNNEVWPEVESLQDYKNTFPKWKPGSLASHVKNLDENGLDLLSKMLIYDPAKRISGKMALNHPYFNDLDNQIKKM

SMILES	Activity [1] [%]	IC50 [2] [µM]	IC50 [3] [µM]	IC50 [4] [µM]	IC50 [5] [µM]	solubility [6] [µg/mL]	solubility [7] [µg/mL]	AUC [8] [µM·h]	Tmax [9] [min]	half-life [10] [min]	other results
COCCOCC(=O)NS(=O)(=O)c1ccc(Nc2nc(N)n(C(=O)c3c(F)cccc3F)n2)cc1	18	0.247	> 10	> 10	> 100	5.4 (≈ 10.6 µM)	> 1000	42.9	4.8	9.6	–
Nc1nc(Nc2ccc(S(=O)(=O)NC(=O)[C@H](N)CO)cc2)nn1C(=O)c1c(F)cccc1F	8	0.14	4.02	71.2	> 10	440 (≈ 914 µM)	> 1000	8.15	4.8	9.6	IC50 [11]: 1.41 µM
CN1CCN(CCC(=O)NS(=O)(=O)c2ccc(Nc3nc(N)n(C(=O)c4c(F)cccc4F)n3)cc2)CC1	4	0.266	> 100	> 10	> 100	> 1000	820 (≈ 1490 µM)	23.2	4.8	9.6	–
Nc1nc(Nc2ccc(S(N)(=O)=O)cc2)nn1C(=O)c1c(F)cccc1F [JNJ-7706621]	–	–	0.284	0.254	0.447	6 (≈ 15.2 µM)	–	–	4.8	9.6	AUC [12]: 0.93 µM·h; AUC [13]: 3.67 µM·h; AUC [14]: 7.62 µM·h; AUC [15]: 29.1 µM·h; AUC [16]: 0.63 µM·h; bioavailability [17]: 2%; bioavailability [18]: 8%; inhibition in vivo at 100 mg/kg [19]: 95%; AUC [20]: 1.4 µM·h; AUC [21]: 18 µM·h
Nc1nc(Nc2ccc(S(=O)(=O)NC(=O)CCN3CCOCC3)cc2)nn1C(=O)c1c(F)cccc1F	7	0.118	20.9	50.8	> 100	14 (≈ 26.1 µM)	4.7 (≈ 8.78 µM)	20.5	4.8	9.6	–
CCOC(=O)CCC(=O)NS(=O)(=O)c1ccc(Nc2nc(N)n(C(=O)c3c(F)cccc3F)n2)cc1	40	0.062	60.2	40.1	> 10	0.2 (≈ 0.383 µM)	210 (≈ 402 µM)	72.2	4.8	9.6	–
NCC(=O)NS(=O)(=O)c1ccc(Nc2nc(N)n(C(=O)c3c(F)cccc3F)n2)cc1	31	–	14.9	36.9	9.45	130 (≈ 288 µM)	200 (≈ 443 µM)	11.8	4.8	9.6	–
Nc1nc(Nc2ccc(S(=O)(=O)NC(=O)CCC(=O)O)cc2)nn1C(=O)c1c(F)cccc1F	38	0.071	31.9	> 100	20.2	0.7 (≈ 1.42 µM)	> 1000	47	4.8	9.6	Activity [22]: inactive

Reference: ChEMBL document CHEMBL1138960 (Bioorg Med Chem Lett, 2006)
